Source: ChEMBL document CHEMBL3885881, “DrugMatrix”

Species: Rattus norvegicus
Experiment: DrugMatrix - Regimen: Daily Repeat
Format: toxicity, organism-based, Sprague-Dawley
Design: regimen Daily Repeat, gender Male, age 6-8 weeks
Conditions: in vivo, po, route oral GAVAGE, vehicle .5 % CMC; for ABSOLUTE LYMPHOCYTE / ABSOLUTE MONOCYTE / ABSOLUTE SEGMENTED NEUTROPHIL / BASOPHIL / EOSINOPHIL / ERYTHROCYTE COUNT / HEMATOCRIT / HEMOGLOBIN / LEUKOCYTE COUNT / LYMPHOCYTE / MEAN CORPUSCULAR HEMOGLOBIN / MEAN CORPUSCULAR HEMOGLOBIN CONCENTRATION / MEAN CORPUSCULAR VOLUME / MONOCYTE / NEUTROPHIL / NUCLEATED RED BLOOD CELLS / PLATELET COUNT / ABSOLUTE BASOPHIL / ABSOLUTE EOSINOPHIL: tissue Blood; for ALANINE AMINOTRANSFERASE / ALBUMIN / ALKALINE PHOSPHATASE / ASPARTATE AMINOTRANSFERASE / BLOOD UREA NITROGEN / CARBON DIOXIDE / CHLORIDE / CHOLESTEROL / CREATINE PHOSPHOKINASE / CREATININE / GLUCOSE / LACTATE DEHYDROGENASE / LIPASE / PHOSPHORUS / POTASSIUM / SODIUM / TOTAL BILIRUBIN / TOTAL PROTEIN / URIC ACID: tissue Plasma
[1] = 11 mg/kg, 120 h, dose level Low, time 5 day
[2] = 110 mg/kg, 72 h, dose level M1, time 3 day
[3] = 110 mg/kg, 120 h, dose level M1, time 5 day

Structure (SMILES): COc1ccc2c3c1O[C@H]1C[C@@H](O)C=C[C@@]31CCN(C)C2 [GALANTAMINE]
- ABSOLUTE LYMPHOCYTE [1]: 13451.33 CELLS/uL
- ABSOLUTE MONOCYTE [1]: 58.33 CELLS/uL
- ABSOLUTE SEGMENTED NEUTROPHIL [1]: 1323.67 CELLS/uL
- BASOPHIL [1]: 0%
- EOSINOPHIL [1]: 0%
- ERYTHROCYTE COUNT [1]: 5.81 x10E6/uL
- HEMATOCRIT [1]: 35.73%
- HEMOGLOBIN [1]: 14.27 G/DL
- LEUKOCYTE COUNT [1]: 14.83 x10E3/uL
- LYMPHOCYTE [1]: 90.33%
- MEAN CORPUSCULAR HEMOGLOBIN [1]: 24.57 pg
- MEAN CORPUSCULAR HEMOGLOBIN CONCENTRATION [1]: 39.93 G/DL
- MEAN CORPUSCULAR VOLUME [1]: 61.57 fL
- MONOCYTE [1]: 0.33%
- NEUTROPHIL [1]: 9.33%
- NUCLEATED RED BLOOD CELLS [1]: 0 /100WBC
- PLATELET COUNT [1]: 1163.33 x10E3/uL
- ALANINE AMINOTRANSFERASE [1]: 48.67 u/L
- ALBUMIN [1]: 4.27 G/DL
- ALKALINE PHOSPHATASE [1]: 399 u/L
- ASPARTATE AMINOTRANSFERASE [1]: 74.67 u/L
- BLOOD UREA NITROGEN [1]: 20.33 mg/dL
- CARBON DIOXIDE [1]: 28.33 mmol/L
- CHLORIDE [1]: 99.67 MEQ/L
- CHOLESTEROL [1]: 76.67 mg/dL
- CREATINE PHOSPHOKINASE [1]: 330.67 u/L
- CREATININE [1]: 0.19 mg/dL
- GLUCOSE [1]: 158.67 mg/dL
- LACTATE DEHYDROGENASE [1]: 135 u/L
- LIPASE [1]: 10 u/L
- PHOSPHORUS [1]: 12.37 mg/dL
- POTASSIUM [1]: 6.09 MEQ/L
- SODIUM [1]: 144.2 MEQ/L
- TOTAL BILIRUBIN [1]: 0.23 mg/dL
- TOTAL PROTEIN [1]: 6.17 G/DL
- URIC ACID [1]: 1.33 mg/dL
- ABSOLUTE BASOPHIL [2]: 0 CELLS/uL
- ABSOLUTE EOSINOPHIL [2]: 37.33 CELLS/uL
- ABSOLUTE LYMPHOCYTE [2]: 14169 CELLS/uL
- ABSOLUTE MONOCYTE [2]: 124.67 CELLS/uL
- ABSOLUTE SEGMENTED NEUTROPHIL [2]: 769 CELLS/uL
- BASOPHIL [2]: 0%
- EOSINOPHIL [2]: 0.33%
- ERYTHROCYTE COUNT [2]: 5.81 x10E6/uL
- HEMATOCRIT [2]: 36.57%
- HEMOGLOBIN [2]: 14.27 G/DL
- LEUKOCYTE COUNT [2]: 15.1 x10E3/uL
- LYMPHOCYTE [2]: 94%
- MEAN CORPUSCULAR HEMOGLOBIN [2]: 24.57 pg
- MEAN CORPUSCULAR HEMOGLOBIN CONCENTRATION [2]: 39 G/DL
- MEAN CORPUSCULAR VOLUME [2]: 62.97 fL
- MONOCYTE [2]: 0.67%
- NEUTROPHIL [2]: 5%
- NUCLEATED RED BLOOD CELLS [2]: 0 /100WBC
- PLATELET COUNT [2]: 1366 x10E3/uL
- ALANINE AMINOTRANSFERASE [2]: 64.33 u/L
- ALBUMIN [2]: 4.03 G/DL
- ALKALINE PHOSPHATASE [2]: 411.33 u/L
- ASPARTATE AMINOTRANSFERASE [2]: 91 u/L
- BLOOD UREA NITROGEN [2]: 16 mg/dL
- CARBON DIOXIDE [2]: 33 mmol/L
- CHLORIDE [2]: 102.67 MEQ/L
- CHOLESTEROL [2]: 70.67 mg/dL
- CREATINE PHOSPHOKINASE [2]: 247.67 u/L
- CREATININE [2]: 0.2 mg/dL
- GLUCOSE [2]: 131.33 mg/dL
- LACTATE DEHYDROGENASE [2]: 252 u/L
- LIPASE [2]: 8.33 u/L
- PHOSPHORUS [2]: 11.67 mg/dL
- POTASSIUM [2]: 7.08 MEQ/L
- SODIUM [2]: 144.3 MEQ/L
- TOTAL BILIRUBIN [2]: 0.23 mg/dL
- TOTAL PROTEIN [2]: 5.5 G/DL
- URIC ACID [2]: 1.43 mg/dL
- ABSOLUTE BASOPHIL [3]: 0 CELLS/uL
- ABSOLUTE EOSINOPHIL [3]: 67.67 CELLS/uL
- ABSOLUTE LYMPHOCYTE [3]: 15229.33 CELLS/uL
- ABSOLUTE MONOCYTE [3]: 0 CELLS/uL
- ABSOLUTE SEGMENTED NEUTROPHIL [3]: 1603 CELLS/uL
- BASOPHIL [3]: 0%
- EOSINOPHIL [3]: 0.33%
- ERYTHROCYTE COUNT [3]: 5.71 x10E6/uL
- HEMATOCRIT [3]: 35.4%
- HEMOGLOBIN [3]: 14.07 G/DL
- LEUKOCYTE COUNT [3]: 16.9 x10E3/uL
- LYMPHOCYTE [3]: 90%
- MEAN CORPUSCULAR HEMOGLOBIN [3]: 24.67 pg
- MEAN CORPUSCULAR HEMOGLOBIN CONCENTRATION [3]: 39.77 G/DL
- MEAN CORPUSCULAR VOLUME [3]: 62.03 fL
- MONOCYTE [3]: 0%
- NEUTROPHIL [3]: 9.67%
- NUCLEATED RED BLOOD CELLS [3]: 0 /100WBC
- PLATELET COUNT [3]: 1316.67 x10E3/uL
- ALANINE AMINOTRANSFERASE [3]: 48 u/L
- ALBUMIN [3]: 4.1 G/DL
- ALKALINE PHOSPHATASE [3]: 401.67 u/L
- ASPARTATE AMINOTRANSFERASE [3]: 99 u/L
- BLOOD UREA NITROGEN [3]: 14.33 mg/dL
- CARBON DIOXIDE [3]: 24.67 mmol/L
- CHLORIDE [3]: 101.67 MEQ/L
- CHOLESTEROL [3]: 60.33 mg/dL
- CREATINE PHOSPHOKINASE [3]: 541 u/L
- CREATININE [3]: 0.27 mg/dL
- GLUCOSE [3]: 132.67 mg/dL
- LACTATE DEHYDROGENASE [3]: 653 u/L
- LIPASE [3]: 11 u/L
- PHOSPHORUS [3]: 13 mg/dL
- POTASSIUM [3]: 6.92 MEQ/L
- SODIUM [3]: 143.03 MEQ/L
- TOTAL BILIRUBIN [3]: 0.23 mg/dL
- TOTAL PROTEIN [3]: 5.77 G/DL
- URIC ACID [3]: 1.8 mg/dL
